# Source: patent US8158376B2, “Bisubstrate fluorescent probe binding to protein kinases” (University of Tartu, priority 2006, dated 2012)
# “And” between values parts separate entries of the source, which are not always exact repeats. Identical values can stand only once. Starred links: 1 amine or outer side, 2 acyl side, 3 side chain; linkers in the order of their positions; H or OH if unused. Non-standard residues stand in square brackets, D forms with d. Residues, ends and D or L forms follow the SMILES beside them. *: point of attachment. Adenosine(5'-uronoyl) = Nc1ncnc2c1ncn2[C@@H]1O[C@H](C(=O)*)[C@@H](O)[C@H]1O; X1 = CN(C)c1ccc2c(-c3ccc(C(=O)*)cc3C(=O)[O-])c3ccc(=[N+](C)C)cc-3oc2c1; Isoquinoline5sulfonyl = O=S(=O)(c1cccc2cnccc12)*; X2 = O=C(CCCCCNCCN[*:1])[*:2]; X3 = CN(CCCCCC(=O)[*:2])[*:1]; 4Amb = NCc1ccc(C(=O)O)cc1; Ahx = NCCCCCC(=O)O; βAla = NCCC(=O)O
# Tests used:
# [1] = biological target: Rho-associated kinase ROCK II (Homo sapiens, UniProt O75116); assay: Titration of ARC-TAMRA with ROCK II, PHERAstar; type: binding; conditions: 2 nM and 20 nM ARC-TAMRA, read-out: Kd of ARC-TAMRA-ROCK II complex
# Description: Experiments were performed in the wells of 384-well microtiter plates and with the measurements of fluorescence anisotropy with the platereader PHERAStar according to the protocols described in the Example 7.
# cAPK Cα [2] = biological target: T1, cAPK Cα (Homo sapiens, UniProt P17612); assay: Inhibition of TAMRA-kemptide phosphorylation catalyzed by cAPK Cα (TLC, fluorescence imaging); type: biochemical; parameters: purchased Biaffin AG
# Description: (§1) The IC50 values of the inhibitors were measured as previously described. [Viht et al., Anal. Biochem. 340 (2005) 165] The inhibitors in various concentrations were incubated at 30° C. in Hepes buffer (50 mM, pH=7.5) containing cAPK Cα (Biaffin AG; about 1 nM), TAMRA-kemptide (10, 30 or 100 μM), ATP (100 μM or 1 mM), magnesium acetate (10 mM) and bovine serum albumin ([…] 0.2 mg/mL). ATP was added last to initiate the phosphorylation reaction. At fixed time points, the reaction was stopped by 20-fold dilution with 75 mM phosphoric acid and obtained solutions were analyzed by normal phase TLC (without fluorescence indicator, eluted with 1-butanol/pyridine/acetic acid/water, 15/10/12/12 by volume). The visualization and quantification of the fluorescent spots were carried out by fluorescence imaging. Data were processed with Graphpad Prism software (version 4, GraphPad).
# cAPK Cα [3] = biological target: T1, cAPK Cα; assay: Titration of ARC-TAMRA with cAPK Cα, PHERAstar plate reader, 384-well; type: binding; parameters: purchased Biaffin AG; conditions: 2 nM and 20 nM ARC-TAMRA, 20 μl, 30° C., read-out: Kd of ARC-TAMRA complex with cAPK Cα
# Description: Titrations of 2 nM and 20 nM ARC-TAMRA solutions were performed with cAPK C[…]. 2-fold serial dilutions of the kinase were used leading to concentrations of the kinase between 100 nM and 0.05 nM and 20 μl reaction volumes on a 384-well microtiter plate. […] Optical conditions for the measurements were set as the following: 540 nm excitation and 590 nm emission (20 nm bandpass filters). To find the value of Kd, titration curves were analyzed by a scientific curve-fitting program, e.g., GraphPad Prism 4.03, with nonlinear regression, using the function below:
# [formula] where A is measured anisotropy, Af—anisotropy value for free ARC-Photo, Ab—anisotropy value for bound ARC-Photo, Lt—total concentration of ARC-Photo, Rt—nominal total concentration of enzyme, k—concentration of active enzyme divided by nominal concentration of enzyme, Kd—dissociation constant for ARC-Photo complex with enzyme. […] Determination of the Inhibition Constants (Ki)
# cAPK Cα [4] = biological target: T1, cAPK Cα; assay: Titration of ARC-TAMRA with cAPK Cα, fluorescence anisotropy, LS 55 spectrometer 0.5 ml cell; type: binding; parameters: purchased Biaffin AG; conditions: LS 55, 0.5 ml quartz cell, read-out: Kd of ARC-TAMRA complex with cAPK Cα
# Description: The change in fluorescence anisotropy was plotted against the kinase concentration [cAPK Cα]. The data were fitted to the equation: […]
# The binding of the fluorescent probe ARC-TAMRA to the kinase cAPK Cα (Biaffin) was studied at 10 nM or 2 nM ARC-TAMRA concentration (excitation at 557 nm, slitwidth 10 nm; emission at 585 nm, slitwidth 10 nm, detection of fluorescence polarization).
# 10 nM solution of ARC-TAMRA in 500 μl of buffer (50 mM HEPES, 200 mM NaCl, 0.5 g/l BSA, 5 mM DTT, 0.05% TWEEN 20, MilliQ water; pH 7.4) was titrated with the solution of kinase cAPK Cα (Biaffin). 1-3 μl quantities of various dilutions of kinase solution were added to 500 μl of 2.0 nM or 10.0 nM solution of ARC-TAMRA, and fluorescence anisotropy was measured after each addition of the kinase solution after 10 min delay time. The change in fluorescence anisotropy was plotted against the kinase concentration [cAPK Cα]. The data were fitted to the equation: […]
# cAPK Cα [5] = biological target: T1, cAPK Cα; assay: Inhibition of cAPK Cα-catalysed phosphorylation of TAMRA-kemptide (TLC/fluorescence imaging); type: biochemical; parameters: purchased Biaffin AG; conditions: single site-targeted constituents of the conjugate
# Description: as §1
# cAPK Cα [6] = biological target: T1, cAPK Cα; assay: High-throughput displacement of ARC-TAMRA from cAPK Cα, PHERAstar
# Description: To determine the inhibition constant (Ki), 3-fold serial dilutions of a given inhibitor are performed analogously as for titration experiments. Before the measurement of fluorescence anisotropies the plate is rotated (400 rpm) for 10 minutes at 30° C.
# cAPK Cα [7] = biological target: T1, cAPK Cα; assay: Competition: displacement of ARC-TAMRA from complex with cAPK Cα, fluorescence anisotropy, LS 55; type: binding; parameters: purchased Biaffin AG
# Description: A complex was created between 10 nM of ARC-TAMRA and 10 nM of cAPK Cα in 0.500 ml of buffer (50 mM HEPES, 200 mM NaCl, 0.5 g/l BSA, 5 mM DTT, 0.05% TWEEN 20, MilliQ water; pH 7.4). Different compounds were screened for binding to cAPK Cα against fixed concentrations of ARC-TAMRA and cAPK Cα (FIG. 4). 1-3 μl quantities of various dilutions of the solution of the inhibitor were added to 500 μl solution of ARC-TAMRA complex with the kinase and fluorescence anisotropy was measured after each addition of the […] after 10 min delay time.
# PKBΔph = PKBΔph (Homo sapiens, UniProt P31749); assay: Kinase selectivity panel, residual activity; type: biochemical; conditions: 1 μM compound, 5 μM ATP, 30° C.
# Description: (§2) The assay of protein kinases was performed at 30° C. as described previously [Davies et al., Biochem. J. 351 (2000) 95; Murray et al., Biochem. J. 384 (2004) 477]. The results of the testing are expressed as the % of residual activity of the kinase in the presence of the inhibitor at 1 micromolar concentration.
# PRK2 = PRK2 (Homo sapiens, UniProt Q16513); assay: Kinase selectivity panel, residual activity; type: biochemical
# Description: as §2
# PKBb = PKBb (Homo sapiens, UniProt P31751); assay: Kinase selectivity panel, residual activity; type: biochemical; conditions: 1 μM compound, 50 μM ATP, 30° C.
# Description: as §2
# MSK1 = MSK1 (Homo sapiens, UniProt O75582); assay: Kinase selectivity panel, residual activity; type: biochemical; conditions: 1 μM compound, 20 μM ATP, 30° C.
# Description: The assay of protein kinases was performed at 30° C. as described previously [Davies et al., Biochem. J. 351 (2000) 95; Murray et al., Biochem. J. 384 (2004) 477].
# [8] = 100 μM ATP and 30 μM TAMRA-kemptide, read-out: IC50
# Chain of PKBb (P31751 whole entry): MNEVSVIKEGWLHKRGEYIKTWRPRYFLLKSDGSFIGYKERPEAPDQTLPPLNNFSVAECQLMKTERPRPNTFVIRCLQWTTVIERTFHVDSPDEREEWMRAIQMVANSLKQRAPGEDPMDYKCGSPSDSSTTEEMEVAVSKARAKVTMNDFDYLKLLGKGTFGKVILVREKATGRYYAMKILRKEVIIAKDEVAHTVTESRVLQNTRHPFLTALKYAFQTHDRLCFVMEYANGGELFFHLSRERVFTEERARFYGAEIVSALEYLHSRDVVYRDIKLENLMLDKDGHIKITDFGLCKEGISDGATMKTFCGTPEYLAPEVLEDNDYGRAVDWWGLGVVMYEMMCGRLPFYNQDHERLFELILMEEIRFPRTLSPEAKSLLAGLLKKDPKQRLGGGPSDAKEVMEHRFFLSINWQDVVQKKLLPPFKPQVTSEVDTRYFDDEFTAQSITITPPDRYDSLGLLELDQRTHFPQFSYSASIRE
# Chain of PRK2 (Q16513 whole entry): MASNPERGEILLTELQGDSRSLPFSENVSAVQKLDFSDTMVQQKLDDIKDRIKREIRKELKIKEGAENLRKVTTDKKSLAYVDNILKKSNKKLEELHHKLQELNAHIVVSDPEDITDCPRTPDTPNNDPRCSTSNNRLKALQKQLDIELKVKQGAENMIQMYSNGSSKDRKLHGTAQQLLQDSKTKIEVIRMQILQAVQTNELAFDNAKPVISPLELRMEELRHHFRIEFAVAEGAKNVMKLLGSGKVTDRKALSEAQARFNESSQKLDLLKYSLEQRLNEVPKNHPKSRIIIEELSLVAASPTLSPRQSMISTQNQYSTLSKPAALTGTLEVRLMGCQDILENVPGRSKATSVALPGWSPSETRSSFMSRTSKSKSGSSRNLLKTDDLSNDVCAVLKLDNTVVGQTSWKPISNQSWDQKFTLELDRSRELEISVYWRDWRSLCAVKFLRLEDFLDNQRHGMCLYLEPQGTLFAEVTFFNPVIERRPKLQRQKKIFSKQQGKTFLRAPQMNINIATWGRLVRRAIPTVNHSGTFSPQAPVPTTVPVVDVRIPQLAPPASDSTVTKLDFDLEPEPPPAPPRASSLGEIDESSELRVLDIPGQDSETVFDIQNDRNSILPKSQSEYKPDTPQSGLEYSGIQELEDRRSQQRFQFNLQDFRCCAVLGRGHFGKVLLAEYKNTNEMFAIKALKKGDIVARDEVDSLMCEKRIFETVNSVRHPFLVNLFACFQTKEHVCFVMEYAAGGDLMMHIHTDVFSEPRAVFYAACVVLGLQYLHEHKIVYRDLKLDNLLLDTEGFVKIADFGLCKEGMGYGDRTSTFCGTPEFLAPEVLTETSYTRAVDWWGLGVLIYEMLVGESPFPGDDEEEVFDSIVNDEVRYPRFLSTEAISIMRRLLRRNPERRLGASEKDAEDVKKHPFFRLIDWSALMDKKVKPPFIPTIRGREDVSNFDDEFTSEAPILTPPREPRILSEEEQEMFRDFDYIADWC
# Chain of Rho-associated kinase ROCK II (O75116 whole entry): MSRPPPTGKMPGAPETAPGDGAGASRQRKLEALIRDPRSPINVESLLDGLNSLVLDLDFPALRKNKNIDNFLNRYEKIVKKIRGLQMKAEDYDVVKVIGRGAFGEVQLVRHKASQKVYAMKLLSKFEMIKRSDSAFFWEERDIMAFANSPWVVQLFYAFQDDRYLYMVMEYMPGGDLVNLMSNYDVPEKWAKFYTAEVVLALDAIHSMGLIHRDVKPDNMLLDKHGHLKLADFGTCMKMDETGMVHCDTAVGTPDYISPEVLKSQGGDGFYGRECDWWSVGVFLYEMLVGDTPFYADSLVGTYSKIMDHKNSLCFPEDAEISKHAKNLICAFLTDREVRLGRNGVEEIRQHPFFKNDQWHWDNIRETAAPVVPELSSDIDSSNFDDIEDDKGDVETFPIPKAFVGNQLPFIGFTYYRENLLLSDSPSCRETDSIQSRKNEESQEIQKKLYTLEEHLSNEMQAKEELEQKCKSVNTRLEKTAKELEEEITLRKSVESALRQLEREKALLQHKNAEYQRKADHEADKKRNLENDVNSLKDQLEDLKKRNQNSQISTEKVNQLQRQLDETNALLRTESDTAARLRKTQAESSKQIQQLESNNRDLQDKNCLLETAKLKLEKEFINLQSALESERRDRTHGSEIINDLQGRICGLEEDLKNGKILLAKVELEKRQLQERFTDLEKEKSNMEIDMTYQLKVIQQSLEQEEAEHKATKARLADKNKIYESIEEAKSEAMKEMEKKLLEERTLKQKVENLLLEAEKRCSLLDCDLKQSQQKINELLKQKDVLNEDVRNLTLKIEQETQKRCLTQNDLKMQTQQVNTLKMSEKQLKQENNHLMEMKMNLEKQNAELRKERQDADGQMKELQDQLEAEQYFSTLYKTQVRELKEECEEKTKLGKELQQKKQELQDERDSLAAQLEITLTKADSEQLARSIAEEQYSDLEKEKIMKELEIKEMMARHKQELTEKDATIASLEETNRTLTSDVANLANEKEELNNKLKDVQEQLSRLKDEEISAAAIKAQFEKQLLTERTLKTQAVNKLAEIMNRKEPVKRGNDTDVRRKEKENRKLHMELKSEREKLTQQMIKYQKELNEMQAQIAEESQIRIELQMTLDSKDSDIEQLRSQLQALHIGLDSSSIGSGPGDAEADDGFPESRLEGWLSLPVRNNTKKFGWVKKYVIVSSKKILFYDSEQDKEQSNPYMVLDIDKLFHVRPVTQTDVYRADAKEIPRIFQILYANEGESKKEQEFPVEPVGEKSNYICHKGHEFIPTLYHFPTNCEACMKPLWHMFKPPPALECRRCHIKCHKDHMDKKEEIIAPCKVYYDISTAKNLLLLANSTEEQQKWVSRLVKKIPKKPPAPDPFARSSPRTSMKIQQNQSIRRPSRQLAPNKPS
# Chain of MSK1 (O75582 whole entry): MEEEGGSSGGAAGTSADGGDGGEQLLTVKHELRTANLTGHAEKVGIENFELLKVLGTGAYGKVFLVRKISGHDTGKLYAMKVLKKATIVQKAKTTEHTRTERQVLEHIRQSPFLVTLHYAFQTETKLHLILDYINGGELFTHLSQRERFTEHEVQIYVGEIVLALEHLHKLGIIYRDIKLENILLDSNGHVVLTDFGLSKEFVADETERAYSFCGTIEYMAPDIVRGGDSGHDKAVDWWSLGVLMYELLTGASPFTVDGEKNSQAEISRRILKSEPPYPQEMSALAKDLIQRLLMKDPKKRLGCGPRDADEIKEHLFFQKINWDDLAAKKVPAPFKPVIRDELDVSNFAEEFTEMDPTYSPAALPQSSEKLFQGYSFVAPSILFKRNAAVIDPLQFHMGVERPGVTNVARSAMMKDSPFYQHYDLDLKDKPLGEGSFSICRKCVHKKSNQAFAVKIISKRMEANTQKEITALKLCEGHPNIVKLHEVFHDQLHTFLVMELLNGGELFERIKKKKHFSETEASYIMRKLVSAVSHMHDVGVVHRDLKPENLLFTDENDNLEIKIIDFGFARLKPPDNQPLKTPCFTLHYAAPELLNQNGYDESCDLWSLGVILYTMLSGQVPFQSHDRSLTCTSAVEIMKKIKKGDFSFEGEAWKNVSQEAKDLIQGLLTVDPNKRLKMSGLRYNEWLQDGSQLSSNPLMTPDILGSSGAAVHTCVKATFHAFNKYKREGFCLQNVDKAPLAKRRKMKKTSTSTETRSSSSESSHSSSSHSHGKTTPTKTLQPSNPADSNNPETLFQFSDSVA
# Chain of PKBΔph (P31749 whole entry, stated change not applied): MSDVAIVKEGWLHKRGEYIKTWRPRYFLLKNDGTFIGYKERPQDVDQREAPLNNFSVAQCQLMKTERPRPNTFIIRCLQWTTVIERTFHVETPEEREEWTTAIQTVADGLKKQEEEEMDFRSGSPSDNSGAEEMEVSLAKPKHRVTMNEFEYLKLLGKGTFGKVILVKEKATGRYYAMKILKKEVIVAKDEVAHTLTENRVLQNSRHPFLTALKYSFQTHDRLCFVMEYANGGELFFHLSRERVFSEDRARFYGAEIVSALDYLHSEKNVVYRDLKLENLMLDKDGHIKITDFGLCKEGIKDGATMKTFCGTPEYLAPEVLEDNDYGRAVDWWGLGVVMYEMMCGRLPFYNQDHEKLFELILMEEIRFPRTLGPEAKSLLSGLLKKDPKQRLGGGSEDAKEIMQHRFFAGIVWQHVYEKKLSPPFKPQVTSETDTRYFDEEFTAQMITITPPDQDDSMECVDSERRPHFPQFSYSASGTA
molecule,measurement,setting,value
"CN(C)c1ccc2c(-c3ccc(C(=O)NCCCC[C@@H](NC(=O)[C@@H](CCCNC(=N)N)NC(=O)[C@@H](CCCNC(=N)N)NC(=O)[C@@H](CCCNC(=N)N)NC(=O)[C@@H](CCCNC(=N)N)NC(=O)[C@@H](CCCNC(=N)N)NC(=O)[C@@H](CCCNC(=N)N)NC(=O)CCCCCNC(=O)[C@H]4O[C@@H](n5cnc6c(N)ncnc65)[C@H](O)[C@@H]4O)C(N)=O)cc3C(=O)[O-])c3ccc(=[N+](C)C)cc-3oc2c1 [ARC-TAMRA, AdcAhx(D-Arg)6-D-Lys(5-TAMRA)-C(O)NH2] ({Adenosine(5'-uronoyl)-Ahx}-[dR][dR][dR][dR][dR][dR][dK](X1)-NH2)",Kd,[1],0.004 µM
same,IC50,cAPK Cα [2]; read-out: IC50 of inhibition towards cAPK,0.0062 µM
same,Kd,cAPK Cα [3],0.0004 µM
same,Kd,cAPK Cα [4]; 2 nM ARC-TAMRA,0.0011 µM
same,Kd,cAPK Cα [4]; 10 nM ARC-TAMRA,0.001 µM and 0.00094 µM
"Nc1ncnc2c1ncn2[C@@H]1O[C@H](CO)[C@@H](O)[C@H]1O [Ado, adenosine, reference compound]",IC50,cAPK Cα [2]; [8],350 ± 40 µM
"Nc1ncnc2c1ncn2[C@@H]1O[C@H](CO)[C@@H](O)[C@H]1O [Ado, adenosine]",inhibitory potency,cAPK Cα [5],submillimolar
N=C(N)NCCC[C@H](NC(=O)[C@H](CCCNC(=N)N)NC(=O)[C@H](CCCNC(=N)N)NC(=O)[C@H](CCCNC(=N)N)NC(=O)CCCCCNC(=O)[C@H]1O[C@@H](n2cnc3c(N)ncnc32)[C@H](O)[C@@H]1O)C(N)=O [Compound 2] ({Adenosine(5'-uronoyl)-Ahx}-RRRR-NH2),IC50,cAPK Cα [2]; [8],2 ± 0.3 µM
"N=C(N)NCCC[C@H](NC(=O)[C@H](CCCNC(=N)N)NC(=O)[C@H](CCCNC(=N)N)NC(=O)[C@H](CCCNC(=N)N)NC(=O)[C@H](CCCNC(=N)N)NC(=O)[C@H](CCCNC(=N)N)NC(=O)CCCCCNC(=O)[C@H]1O[C@@H](n2cnc3c(N)ncnc32)[C@H](O)[C@@H]1O)C(N)=O [Compound 3, AdcAhx(L-Arg)6-NH2]",Ki,cAPK Cα [6],0.021 µM
same,IC50,"cAPK Cα [7]; 10 nM ARC-TAMRA, 10 nM cAPK Cα",1.3 µM
same,Ki,cAPK Cα [7]; read-out: Ki (competitive binding),0.11 µM
N=C(N)NCCC[C@@H](NC(=O)[C@@H](CCCNC(=N)N)NC(=O)[C@@H](CCCNC(=N)N)NC(=O)[C@@H](CCCNC(=N)N)NC(=O)CCCCCNC(=O)[C@H]1O[C@@H](n2cnc3c(N)ncnc32)[C@H](O)[C@@H]1O)C(N)=O [Compound 4] ({Adenosine(5'-uronoyl)-Ahx}-[dR][dR][dR][dR]-NH2),IC50,cAPK Cα [2]; [8],0.33 ± 0.03 µM
CN(CCCCCC(=O)N[C@@H](CCCNC(=N)N)C(=O)N[C@@H](CCCNC(=N)N)C(=O)N[C@@H](CCCNC(=N)N)C(=O)N[C@@H](CCCNC(=N)N)C(N)=O)C(=O)[C@H]1O[C@@H](n2cnc3c(N)ncnc32)[C@H](O)[C@@H]1O [Compound 6] ({Adenosine(5'-uronoyl)}-[X3]RRRR-NH2),IC50,cAPK Cα [2]; [8],2.6 ± 0.6 µM
N=C(N)NCCC[C@H](NC(=O)[C@H](CCCNC(=N)N)NC(=O)[C@H](CCCNC(=N)N)NC(=O)[C@H](CCCNC(=N)N)NC(=O)c1ccc(CNC(=O)[C@H]2O[C@@H](n3cnc4c(N)ncnc43)[C@H](O)[C@@H]2O)cc1)C(N)=O [Compound 7] ({Adenosine(5'-uronoyl)-4Amb}-RRRR-NH2),IC50,cAPK Cα [2]; [8],23 ± 4 µM
N=C(N)NCCC[C@H](NC(=O)[C@H](CCCNC(=N)N)NC(=O)[C@H](CCCNC(=N)N)NC(=O)[C@H](CCCNC(=N)N)NC(=O)CCNC(=O)[C@H](Cc1ccccc1)NC(=O)[C@H]1O[C@@H](n2cnc3c(N)ncnc32)[C@H](O)[C@@H]1O)C(N)=O [Compound 8] ({Adenosine(5'-uronoyl)}-F[βAla]RRRR-NH2),IC50,cAPK Cα [2]; [8],3.7 ± 0.3 µM
N=C(N)NCCC[C@H](NC(=O)[C@H](CCCNC(=N)N)NC(=O)[C@H](CCCNC(=N)N)NC(=O)[C@H](CCCNC(=N)N)NC(=O)CCCCCNCCNS(=O)(=O)c1cccc2cnccc12)C(N)=O [Compound 25] (Isoquinoline5sulfonyl-[X2]RRRR-NH2),IC50,"cAPK Cα [2]; second value in parentheses, condition not stated in table (method: ATP 100 μM or 1 mM), read-out: IC50 (μM), value in parentheses (converted)",0.22 µM
"N=C(N)NCCC[C@@H](NC(=O)[C@@H](CCCNC(=N)N)NC(=O)[C@@H](CCCNC(=N)N)NC(=O)[C@@H](CCCNC(=N)N)NC(=O)[C@@H](CCCNC(=N)N)NC(=O)[C@@H](CCCNC(=N)N)NC(=O)CCCCCNCCNS(=O)(=O)c1cccc2cnccc12)C(N)=O [Compound 26, H9-(CH2)5C(O)(D-Arg)6-NH2]",residual activity,PKBΔph,≤ 3%
same,remaining activity at 1 µM,PRK2,≤ 3%
same,remaining activity at 1 µM,PKBb,≤ 3%
same,remaining activity at 1 µM,MSK1,≤ 3%
"CC(=O)N[C@H](CCCNC(=N)N)C(=O)N[C@H](CCCNC(=N)N)C(=O)N[C@H](CCCNC(=N)N)C(=O)N[C@H](CCCNC(=N)N)C(=O)N[C@H](CCCNC(=N)N)C(=O)N[C@H](CCCNC(=N)N)C(=O)N[C@H](CCCCN)C(N)=O [Compound 27, Ac-(D-Arg)6-D-Lys-NH2] (Ac-[dR][dR][dR][dR][dR][dR][dK]-NH2)",IC50,cAPK Cα [2]; [8],~3000 µM
"NCCNS(=O)(=O)c1cccc2cnccc12 [Compound H9, 5-isoquinolinesulfonyl ethylenediamine, reference compound]",IC50,cAPK Cα [2]; [8],3.7 ± 0.3 µM
"RIIa: regulatory subunit of cAMP-dependent protein kinase RIIα, substrate protein-competitive inhibitor",Ki,"cAPK Cα [6]; read-out: Ki (displacement of ARC-TAMRA), 2 nM ARC-TAMRA, 3 nM cAPK Cα, PHERAstar, Kd 0.4 nM used",0.0005 µM
